Assay results from paper PMC3914206.

Experiments:
Assay type in all cases: binding
Set-up in all cases: KINOMEscan: ABL1(F317L)-phosphorylated / KINOMEscan: ABL1(H396P)-nonphosphorylated / KINOMEscan: ABL1(H396P)-phosphorylated / KINOMEscan: ABL1(M351T)-phosphorylated / KINOMEscan: ABL1(T315I)-phosphorylated / KINOMEscan: ABL1-nonphosphorylated / KINOMEscan: ABL1-phosphorylated / KINOMEscan: ACVR2A / KINOMEscan: ACVR2B / KINOMEscan: ADCK3 / KINOMEscan: ADCK4 / KINOMEscan: AKT1 / KINOMEscan: AKT3 / KINOMEscan: ALK / KINOMEscan: ARK5 / KINOMEscan: AURKA / KINOMEscan: AURKC / KINOMEscan: BIKE / KINOMEscan: BMPR1A / KINOMEscan: BMPR1B / KINOMEscan: BMX / KINOMEscan: BRK / KINOMEscan: BRSK1 / KINOMEscan: BRSK2 / KINOMEscan: CAMK1 / KINOMEscan: CAMK1D / KINOMEscan: CAMK1G / KINOMEscan: CAMK2A / KINOMEscan: CAMK2B / KINOMEscan: AAK1 / KINOMEscan: CAMK2D / KINOMEscan: CAMK2G / KINOMEscan: ABL1(F317I)-nonphosphorylated / KINOMEscan: ABL1(F317I)-phosphorylated / KINOMEscan: ABL1(F317L)-nonphosphorylated: unit: % Ctrl
Conditions in all cases: Compound Concentration 10 µM
panel of 442 kinases [1] = molecular target: T1, panel of 442 kinases (Homo sapiens, UniProt Q96D53)
T1 construct: purchased KINOMEscan
T1 sequence (Q96D53 1-544): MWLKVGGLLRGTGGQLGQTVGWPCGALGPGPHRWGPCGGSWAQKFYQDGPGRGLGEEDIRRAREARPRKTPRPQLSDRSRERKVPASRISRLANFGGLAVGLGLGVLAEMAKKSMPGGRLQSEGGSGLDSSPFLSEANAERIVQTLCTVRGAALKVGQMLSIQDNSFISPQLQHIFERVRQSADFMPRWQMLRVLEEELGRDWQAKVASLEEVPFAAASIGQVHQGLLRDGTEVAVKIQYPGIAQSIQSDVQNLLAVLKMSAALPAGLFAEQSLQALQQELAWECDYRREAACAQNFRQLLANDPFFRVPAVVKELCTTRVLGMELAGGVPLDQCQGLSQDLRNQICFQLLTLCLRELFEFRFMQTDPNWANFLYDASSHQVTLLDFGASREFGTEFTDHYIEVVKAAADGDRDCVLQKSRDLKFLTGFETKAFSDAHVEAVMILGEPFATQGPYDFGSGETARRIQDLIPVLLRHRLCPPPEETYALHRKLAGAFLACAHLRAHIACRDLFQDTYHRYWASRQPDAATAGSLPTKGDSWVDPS
Description: (§1) We assessed the selectivity of members of this scaffold using the KINOMEscan methodology across a near comprehensive panel of 442 kinases [[18,27]].

panel of 442 kinases [2] = molecular target: T2, panel of 442 kinases (Homo sapiens, UniProt P07949)
T2 construct: purchased KINOMEscan
T2 sequence (P07949 29-1114): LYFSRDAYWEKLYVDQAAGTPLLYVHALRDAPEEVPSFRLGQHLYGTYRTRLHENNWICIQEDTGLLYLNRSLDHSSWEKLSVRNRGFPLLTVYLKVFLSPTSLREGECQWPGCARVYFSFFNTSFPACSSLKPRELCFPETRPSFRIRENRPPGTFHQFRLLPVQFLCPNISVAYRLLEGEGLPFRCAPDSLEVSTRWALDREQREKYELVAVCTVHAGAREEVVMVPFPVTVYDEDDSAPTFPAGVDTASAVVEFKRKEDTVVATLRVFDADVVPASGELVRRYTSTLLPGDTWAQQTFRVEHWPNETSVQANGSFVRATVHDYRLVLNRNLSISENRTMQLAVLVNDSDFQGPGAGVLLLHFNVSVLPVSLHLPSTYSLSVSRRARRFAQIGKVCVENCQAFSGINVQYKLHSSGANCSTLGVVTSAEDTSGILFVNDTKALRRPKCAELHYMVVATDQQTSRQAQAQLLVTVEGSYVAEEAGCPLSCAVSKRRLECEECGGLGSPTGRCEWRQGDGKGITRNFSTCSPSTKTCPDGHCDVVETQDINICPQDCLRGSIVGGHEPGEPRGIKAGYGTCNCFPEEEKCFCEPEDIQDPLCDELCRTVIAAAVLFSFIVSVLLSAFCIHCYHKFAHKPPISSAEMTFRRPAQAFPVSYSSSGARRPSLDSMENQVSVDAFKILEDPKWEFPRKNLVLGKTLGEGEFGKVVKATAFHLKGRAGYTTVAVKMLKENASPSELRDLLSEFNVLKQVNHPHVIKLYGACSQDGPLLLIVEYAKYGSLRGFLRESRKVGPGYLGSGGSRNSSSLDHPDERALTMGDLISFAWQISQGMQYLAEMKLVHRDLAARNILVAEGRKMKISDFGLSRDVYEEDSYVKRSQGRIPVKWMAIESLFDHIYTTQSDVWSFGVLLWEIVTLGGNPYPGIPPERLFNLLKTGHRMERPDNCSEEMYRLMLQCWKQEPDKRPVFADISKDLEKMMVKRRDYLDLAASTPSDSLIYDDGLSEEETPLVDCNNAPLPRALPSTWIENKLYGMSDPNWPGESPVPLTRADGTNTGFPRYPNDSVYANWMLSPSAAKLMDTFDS
Description: as §1

panel of 442 kinases [3] = molecular target: T3, panel of 442 kinases (Homo sapiens, UniProt P42336, Q546K)
T3 construct: purchased KINOMEscan
T3 sequence (P42336 whole entry Q546K): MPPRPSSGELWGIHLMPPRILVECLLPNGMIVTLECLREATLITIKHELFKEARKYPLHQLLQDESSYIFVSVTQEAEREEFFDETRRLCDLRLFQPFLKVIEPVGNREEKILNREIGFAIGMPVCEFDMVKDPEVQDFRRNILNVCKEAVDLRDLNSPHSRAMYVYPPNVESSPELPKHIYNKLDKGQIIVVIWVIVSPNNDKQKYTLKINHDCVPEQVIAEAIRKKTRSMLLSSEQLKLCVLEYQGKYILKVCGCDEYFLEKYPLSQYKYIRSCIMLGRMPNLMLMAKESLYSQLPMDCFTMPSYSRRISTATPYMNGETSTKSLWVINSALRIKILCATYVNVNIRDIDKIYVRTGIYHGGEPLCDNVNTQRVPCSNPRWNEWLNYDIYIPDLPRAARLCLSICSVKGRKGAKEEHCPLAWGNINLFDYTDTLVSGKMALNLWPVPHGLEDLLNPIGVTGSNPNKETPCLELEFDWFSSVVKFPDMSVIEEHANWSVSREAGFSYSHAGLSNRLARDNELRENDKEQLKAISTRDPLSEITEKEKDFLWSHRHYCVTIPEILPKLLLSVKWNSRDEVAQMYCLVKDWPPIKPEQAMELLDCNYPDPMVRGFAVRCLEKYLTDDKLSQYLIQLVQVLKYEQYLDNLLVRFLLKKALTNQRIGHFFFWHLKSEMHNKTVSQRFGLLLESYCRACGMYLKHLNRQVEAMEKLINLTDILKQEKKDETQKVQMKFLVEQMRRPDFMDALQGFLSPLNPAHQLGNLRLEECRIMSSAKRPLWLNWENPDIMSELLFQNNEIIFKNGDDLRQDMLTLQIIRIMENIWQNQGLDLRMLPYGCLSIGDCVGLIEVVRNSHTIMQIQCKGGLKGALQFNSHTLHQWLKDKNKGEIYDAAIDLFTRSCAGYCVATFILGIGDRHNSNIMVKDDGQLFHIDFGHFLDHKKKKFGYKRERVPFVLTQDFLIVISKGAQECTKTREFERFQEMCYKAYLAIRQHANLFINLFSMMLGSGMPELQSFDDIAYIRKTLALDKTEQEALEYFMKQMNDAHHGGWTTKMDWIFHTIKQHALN
Description: as §1

Compound	KINOMEscan: ADCK4 (panel of 442 kinases [1])	KINOMEscan: RET (panel of 442 kinases [2])	KINOMEscan: PIK3CA(Q546K) (panel of 442 kinases [3])
COc1cc(C(=O)N2CCC(N3CCN(C)CC3)CC2)ccc1Nc1ncc2c(n1)N(C1CCCC1)c1ccccc1C(=O)N2C [Compound 25, 11-cyclopentyl-2-((2-methoxy-4-(4-(4-methylpiperazin-1-yl)piperidine-1-carbonyl)phenyl)amino)-5-methyl-5H-benzo[e]pyrimido[5,4-b][1,4]diazepin-6(11H)-one]	92	100	100
COc1cc(C(=O)N2CCC(N3CCN(C)CC3)CC2)ccc1Nc1ncc2c(n1)N1CCc3cccc(c31)C(=O)N2C [Compound 24]	81		98
COc1cc(C(=O)N2CCC(N3CCN(C)CC3)CC2)ccc1Nc1ncc2c(n1)N(C)c1ccccc1C(=O)N2C [15 (LRRK2-IN-1)]	94	100	91
CCOc1cc(C(=O)N2CCC(N3CCN(C)CC3)CC2)ccc1Nc1ncc2c(n1)N(C1CCCC1)c1ccccc1C(=O)N2C [Compound 26]	100	100	99
